Each structure is given as a SMILES string.

The test system of one assay is C. elegans. Nature of the assay: Efficacy against nematodes (C. elegans motility rating). Also noted: key: 0: no effect; 7: reduced movement in 24 h; 8: dead in 24 h; 9: dead in 4 h. To be noted: observations at 4 h and 24 h postimmersion. The method, boiled down:
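Mixed-stage C. elegans (~50 per well, L1 to adult) in M9 buffer exposed to test compound at 100 ppm, 150 ppm or 200 μM final. Motility of larvae and adults scored under dissecting microscope at 4 h and 24 h.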

For assay [1], the system named is Trichostrongylus columbriformis. As to the kind of experiment: In vivo efficacy against T. colubriformis in infected gerbils. To be noted: gerbils infected with T. colubriformis; single oral dose of 50 mg/kg by gavage; worm counts four days post-treatment; % mortality as compared to negative control. The method, then: In Vivo Evaluation of the Efficacy of Test Compounds Against T. colubriformis
In this evaluation, gerbils are infected with Trichostrongylus columbriformis infective larvae at a concentration of approximately 800 L3/mL. Larvae for gerbil infections are cultured from feces from sheep previously infected with T. colubriformis. One week post infection, test compounds are administered by gavage as a single oral dose of 50 mg/kg of body weight. For each group of 3 gerbils, 10 mg of test compound are dissolved in 2 mL of PEG 400:DMSO (1:2 v/v) and each animal is administered the test solution at a rate of 0.1 mL/10 g of body weight. […] All animals are observed daily for morbidity and mortality. Four days post-treatment, all animals are weighed and necropsied. Worm counts are conducted with the use of stereoscopes and counters.

The molecule `Cc1ccccc1C1=C(O)C(=Cc2ccc(-c3ccccc3C)cc2)OC1=O` came in with a Rating in the assay on C. elegans (dose 150 ppm) of 8. The molecule further yielded a Mortality in assay [1] of 21.30%. Molecule `Cc1cc(/C=C2\OC(=O)C(c3cccc(Cl)c3)=C2O)ccc1-c1ccccc1Cl` displayed a Mortality in assay [1] of 16.90%.

For `Cc1ccccc1-c1ccc(C=C2OC(=O)C(c3cccc(Cl)c3)=C2O)cc1C`, the Rating with C. elegans (dose 150 ppm) is 9. In addition, in assay [1], the Mortality turned out to be 10.80%.

`Cc1ccc(C2=C(O)/C(=C/c3cccc(C(F)(F)F)c3Cl)OC2=O)cc1C` came in with a Mortality in assay [1] of 36.50%. For `O=C1O/C(=C\c2ccc(-c3ccc(Cl)c(Cl)c3)cc2)C(O)=C1c1ccc(Cl)c(Cl)c1`, the Rating with C. elegans (dose 150 ppm) is listed as 9. Besides, the Mortality in assay [1] was found to be 22.00%. For `CCc1ccc(C2=C(O)C(=Cc3cc(C(F)(F)F)ccc3Cl)OC2=O)cc1`, the Mortality in assay [1] amounted to 39.00%. On to `C=CCOC1=C(c2ccc(Cl)cc2)C(=O)OC1=Cc1ccc(C#N)cc1` (mixture of isomers), for which the Rating in the assay with C. elegans (dose 100 ppm) amounted to 0. Also, in assay [1], the Mortality is 0.00%. `N#Cc1ccc(-c2ccc(C=C3OC(=O)C(c4cccc(C(F)(F)F)c4)=C3O)cc2)cc1` (mixture of isomers): the Rating in the assay on C. elegans (dose 100 ppm) is recorded as 9. The Mortality in assay [1] worked out at 47.50%. The like results for `O=C1OC(=Cc2ccc(-c3ccc(Cl)cc3)cc2)C(O)=C1c1cccc(C(F)(F)F)c1` (mixture of isomers) were, in that order, 9 and 31.30%. For the molecule `N#Cc1cccc(C2=C(O)C(=Cc3ccc(-c4ccc(Cl)cc4)cc3)OC2=O)c1` (mixture of isomers), the Rating in the assay on C. elegans (dose 100 ppm) came to 9. Moreover, in assay [1], the Mortality is 0.00%.

Consider `N#Cc1ccc(-c2ccc(C=C3OC(=O)C(c4cccc(Cl)c4)=C3O)cc2)cc1` (mixture of isomers), for which the Rating with C. elegans (dose 100 ppm) was found to be 9. In assay [1], this molecule showed a Mortality of 32.00%. `O=C1OC(=Cc2ccc(-c3ccc(Cl)cc3)cc2)C(O)=C1c1cccc(Cl)c1` (mixture of isomers) gave a Rating in the assay on C. elegans (dose 100 ppm) of 9. This molecule came in with a Mortality in assay [1] of 37.60%. For the molecule `N#Cc1ccc(-c2ccc(C=C3OC(=O)C(c4ccc(C(F)(F)F)cc4)=C3O)cc2)cc1` (mixture of isomers), in the assay on C. elegans (dose 100 ppm), the Rating is 9. This molecule showed a Mortality in assay [1] of 91.50%. For the molecule `N#Cc1ccc(C2=C(O)C(=Cc3ccc4c(c3)OC(F)(F)O4)OC2=O)cc1` (mixture of isomers), the Rating with C. elegans (dose 100 ppm) is listed as 9. The molecule also had a Mortality in assay [1] of 88.10%. As to `N#Cc1ccc(C2=C(O)C(=Cc3ccc(Cl)s3)OC2=O)cc1` (mixture of isomers), the Rating in the assay with C. elegans (dose 100 ppm) amounted to 9. Also, the Mortality in assay [1] is reported as 20.60%. The like results for `O=C1OC(=Cc2ccc(-c3ccc(C(F)(F)F)cc3)cc2)C(O)=C1c1ccc(Cl)cc1` (mixture of isomers) were, in that order, 9 and 0.00%. As to `N#Cc1ccc(-c2ccc(C=C3OC(=O)C(c4ccc(F)cc4)=C3O)cc2)cc1` (mixture of isomers), the Rating in the assay with C. elegans (dose 100 ppm) came to 9. The Mortality in assay [1] stood at 31.80%. `O=C1OC(=Cc2ccc(-c3ccc(Cl)cc3)cc2)C(O)=C1c1ccc(F)cc1` (mixture of isomers) displayed a Rating in the assay with C. elegans (dose 100 ppm) of 9. This molecule also displayed a Mortality in assay [1] of 1.60%. Consider `O=C1OC(=Cc2ncccc2Br)C(O)=C1c1ccc(OC(F)(F)F)cc1` (mixture of isomers), for which the Rating in the assay with C. elegans (dose 100 ppm) stood at 0. Also, the Mortality in assay [1] stood at 26.90%.

Consider `O=C1OC(=Cc2cnccc2Br)C(O)=C1c1ccc(OC(F)(F)F)cc1` (mixture of isomers), for which, in the assay with C. elegans (dose 100 ppm), the Rating is recorded as 9. Further, in assay [1], the Mortality is recorded as 12.80%. In the case of `O=C1OC(=Cc2cnccc2-c2cccc(Cl)c2)C(O)=C1c1ccc(OC(F)(F)F)cc1` (mixture of isomers), the Mortality in assay [1] came to 66.80%. In assay [1], `O=C1OC(=Cc2cnccc2-c2ccc(Cl)cc2)C(O)=C1c1ccc(OC(F)(F)F)cc1` (mixture of isomers) had a Mortality of 84.60%. As to `O=C1OC(=Cc2cnccc2-c2ccc(F)cc2)C(O)=C1c1ccc(OC(F)(F)F)cc1` (mixture of isomers), the Rating with C. elegans (dose 100 ppm) came out at 9. In assay [1], this molecule had a Mortality of 12.80%.

`O=C1OC(=Cc2cnccc2-c2ccc(OC(F)(F)F)cc2)C(O)=C1c1ccc(OC(F)(F)F)cc1` (mixture of isomers) returned a Mortality in assay [1] of 82.60%. Same read-out and setting: the result for `O=C1OC(=Cc2cnccc2-c2ccc(Cl)s2)C(O)=C1c1ccc(OC(F)(F)F)cc1` (mixture of isomers) reads 88.50%. On to `O=C1OC(=Cc2cnccc2-c2cccs2)C(O)=C1c1ccc(OC(F)(F)F)cc1` (mixture of isomers), for which the Rating in the assay on C. elegans (dose 100 ppm) is listed as 9. This molecule also yielded a Mortality in assay [1] of 12.80%.

`CCCOc1ccc(C=C2OC(=O)C(c3ccc(OC(F)(F)F)cc3)=C2O)cc1` (mixture of isomers) yielded a Mortality in assay [1] of 10.40%. In turn, `O=C1OC(=Cc2ccc(Cl)s2)C(O)=C1c1ccc(OC(F)(F)F)cc1` (mixture of isomers) came in with a Rating with C. elegans (dose 100 ppm) of 9. The Mortality in assay [1] turned out to be 26.10%. With `N#Cc1ccc(C=C2OC(=O)C(c3ccc(-c4ccc(C#N)cc4)cc3)=C2O)cc1` (mixture of isomers), the Rating in the assay on C. elegans (dose 100 ppm) stood at 9. Also, the Mortality in assay [1] worked out at 29.80%. With `N#Cc1ccc(-c2ccc(C3=C(O)C(=Cc4ccc(Cl)cc4)OC3=O)cc2)cc1` (mixture of isomers), the Rating in the assay with C. elegans (dose 100 ppm) is 9. The Mortality in assay [1] stood at 13.10%. The molecule `O=C1OC(=Cc2ccc(C(F)(F)F)cc2)C(O)=C1c1ccc(-c2ccc(Cl)cc2)cc1` (mixture of isomers) had a Rating with C. elegans (dose 100 ppm) of 9. In assay [1], this molecule yielded a Mortality of 21.30%. `N#Cc1ccc(C=C2OC(=O)C(c3ccc(-c4ccc(Cl)cc4)cc3)=C2O)cc1` (mixture of isomers) returned a Rating in the assay with C. elegans (dose 100 ppm) of 9. The Mortality in assay [1] is recorded as 0.00%. The like results for `O=C1OC(=Cc2ccc(Cl)cc2)C(O)=C1c1ccc(-c2ccc(Cl)cc2)cc1` (mixture of isomers) were, in that order, 9 and 0.00%.

On to `COC1=C(c2ccc(Cl)cc2)C(=O)OC1=Cc1ccc(C#N)cc1` (mixture of isomers) [R=CH3; R1=4-Cl—C6H4**; R2=4-CN—C6H4], for which the Rating in the assay on C. elegans (dose 100 ppm) came to 0. In assay [1], this molecule returned a Mortality of 0.00%. In the case of `O=C1OC(=Cc2ccc(C(F)(F)F)cc2)C(O)=C1c1cccc(C(F)(F)F)c1` (mixture of isomers) [R=H; R1=3-CF3—C6H4**; R2=4-CF3—C6H4], the Rating with C. elegans (dose 100 ppm) is given as 9. In assay [1], this molecule gave a Mortality of 0.00%. Turning to `N#Cc1ccc(C=C2OC(=O)C(c3cccc(C(F)(F)F)c3)=C2O)cc1` (mixture of isomers) [R=H; R1=3-CF3—C6H4**; R2=4-CN—C6H4], the Rating with C. elegans (dose 100 ppm) is recorded as 9. The Mortality in assay [1] is 0.00%.

For the molecule `O=C1OC(=Cc2ccc(F)cc2)C(O)=C1c1cccc(C(F)(F)F)c1` (mixture of isomers) [R=H; R1=3-CF3—C6H4**; R2=4-F—C6H4], the Rating in the assay on C. elegans (dose 100 ppm) stood at 9. In assay [1], this molecule displayed a Mortality of 36.40%. As to `N#Cc1cccc(C2=C(O)C(=Cc3ccc(C(F)(F)F)cc3)OC2=O)c1` (mixture of isomers) [R=H; R1=3-CN—C6H4**; R2=4-CF3—C6H4], in the assay on C. elegans (dose 100 ppm), the Rating is listed as 9. Further, the Mortality in assay [1] worked out at 0.00%. `N#Cc1ccc(C=C2OC(=O)C(c3cccc(C#N)c3)=C2O)cc1` (mixture of isomers) [R=H; R1=3-CN—C6H4**; R2=4-CN—C6H4] registered a Rating with C. elegans (dose 100 ppm) of 9. Moreover, in assay [1], the Mortality came out at 25.50%.

In the assay with C. elegans (dose 100 ppm), `N#Cc1cccc(C2=C(O)C(=Cc3ccc(Cl)cc3)OC2=O)c1` (mixture of isomers) [R=H; R1=3-CN—C6H4**; R2=4-Cl—C6H4] gave a Rating of 9. The molecule also registered a Mortality in assay [1] of 0.00%. The like results for `N#Cc1cccc(C2=C(O)C(=Cc3ccc(F)cc3)OC2=O)c1` (mixture of isomers) [R=H; R1=3-CN—C6H4**; R2=4-F—C6H4] were, in that order, 7 and 0.00%. The like results for `O=C1OC(=Cc2ccc(C(F)(F)F)cc2)C(O)=C1c1cccc(Cl)c1` (mixture of isomers) [R=H; R1=3-Cl—C6H4**; R2=4-CF3—C6H4] were, in that order, 9 and 57.90%.

`O=C1O/C(=C\c2ccccc2)C(O)=C1c1ccccc1C(F)(F)F` [R=H; R1=2-CF3—C6H4; R2=C6H5] returned a Mortality in assay [1] of 34.60%. Still for that read-out and setting: the result for `O=C1O/C(=C\c2ccc(-c3ccccc3F)cc2)C(O)=C1c1ccccc1F` [R=H; R1=2-F—C6H4; R2=4-(2′F-biphenyl)] reads 12.40%; that for `O=C1O/C(=C\c2cc(C(F)(F)F)ccc2F)C(O)=C1c1cccc(-c2ccccc2)c1` [R=H; R1=3-biphenyl; R2=2-F-5-CF3—C6H4], 38.40%. Turning to `O=C1O/C(=C\c2cc(F)cc(C(F)(F)F)c2)C(O)=C1c1cccc(-c2ccccc2)c1` [R=H; R1=3-biphenyl; R2=3-F-5-CF3—C6H4], the Mortality in assay [1] stood at 0.00%.

Molecule `O=C1O/C(=C\c2ccc(Cl)cc2)C(O)=C1c1ccc(-c2ccccc2)c(F)c1` [R=H; R1=4-(3-F-biphenyl); R2=4-CI-C6H4] displayed a Mortality in assay [1] of 22.00%. As for `O=C1O/C(=C\c2cccc(Cl)c2)C(O)=C1c1ccc(Cl)cc1` [R=H; R1=4-Cl—C6H4; R2=3-CI-C6H4], the Mortality in assay [1] came out at 25.40%. On the same count and under the same terms, the result for `O=C1O/C(=C\c2cc(C(F)(F)F)ccc2Cl)C(O)=C1c1ccc(-c2ccccc2)cc1` [R=H; R1=4-biphenyl; R2=2-Cl—5-CF3—C6H4] reads 38.40%.

The values are drawn from US7495027B2, “3-aryl-4-hydroxyfuranone compounds and the human and animal health use thereof” (Wyeth, priority 2003, dated 2009).
